The record followed here is PMC6437697 (Journal of Medicinal Chemistry, 2019).

Test in all cases: KINOMEscan
What all share (format): binding
Holding throughout (settings): read-out: % control activity remaining

One assay deals with T1, ASK2 (Homo sapiens, UniProt O95382).
T1 construct: purchased Eurofins DiscoverX KINOMEscan
T1 sequence (O95382 1-1288): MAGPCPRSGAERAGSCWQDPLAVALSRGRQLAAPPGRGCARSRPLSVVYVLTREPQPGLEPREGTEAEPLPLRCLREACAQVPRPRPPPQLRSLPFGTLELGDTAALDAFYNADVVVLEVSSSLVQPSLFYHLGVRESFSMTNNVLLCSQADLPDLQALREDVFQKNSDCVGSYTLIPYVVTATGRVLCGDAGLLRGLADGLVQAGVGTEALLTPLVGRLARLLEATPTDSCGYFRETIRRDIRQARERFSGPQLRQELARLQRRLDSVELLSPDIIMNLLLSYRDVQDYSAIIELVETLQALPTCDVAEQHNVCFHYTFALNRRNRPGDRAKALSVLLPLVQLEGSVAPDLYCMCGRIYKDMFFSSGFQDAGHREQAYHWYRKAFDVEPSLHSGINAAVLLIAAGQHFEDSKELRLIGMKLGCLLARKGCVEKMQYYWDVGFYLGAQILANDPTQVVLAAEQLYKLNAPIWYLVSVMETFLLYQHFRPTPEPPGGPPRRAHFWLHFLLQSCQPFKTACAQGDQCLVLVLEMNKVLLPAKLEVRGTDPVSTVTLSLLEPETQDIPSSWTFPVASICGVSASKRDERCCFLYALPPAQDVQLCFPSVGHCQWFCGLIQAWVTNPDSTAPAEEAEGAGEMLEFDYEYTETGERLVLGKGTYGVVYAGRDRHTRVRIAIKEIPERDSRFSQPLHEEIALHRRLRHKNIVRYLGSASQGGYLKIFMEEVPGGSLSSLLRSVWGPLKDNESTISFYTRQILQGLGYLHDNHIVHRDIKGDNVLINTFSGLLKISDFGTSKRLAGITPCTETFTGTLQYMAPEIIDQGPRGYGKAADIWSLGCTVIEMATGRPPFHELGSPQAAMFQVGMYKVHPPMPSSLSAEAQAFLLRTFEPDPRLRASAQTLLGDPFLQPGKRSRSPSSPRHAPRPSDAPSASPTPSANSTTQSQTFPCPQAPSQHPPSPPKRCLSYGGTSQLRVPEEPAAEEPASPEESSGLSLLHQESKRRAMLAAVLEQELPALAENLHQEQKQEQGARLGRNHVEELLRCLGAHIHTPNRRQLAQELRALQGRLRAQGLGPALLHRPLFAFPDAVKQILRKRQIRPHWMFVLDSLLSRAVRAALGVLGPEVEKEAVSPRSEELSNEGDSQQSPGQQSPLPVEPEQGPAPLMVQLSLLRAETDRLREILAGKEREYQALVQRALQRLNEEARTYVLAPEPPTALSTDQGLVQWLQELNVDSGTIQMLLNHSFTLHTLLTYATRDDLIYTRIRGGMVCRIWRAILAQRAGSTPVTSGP

The target of the next assay is T2, MYLK (Homo sapiens, UniProt Q15746).
T2 construct: purchased Eurofins DiscoverX KINOMEscan
T2 sequence (Q15746 whole entry): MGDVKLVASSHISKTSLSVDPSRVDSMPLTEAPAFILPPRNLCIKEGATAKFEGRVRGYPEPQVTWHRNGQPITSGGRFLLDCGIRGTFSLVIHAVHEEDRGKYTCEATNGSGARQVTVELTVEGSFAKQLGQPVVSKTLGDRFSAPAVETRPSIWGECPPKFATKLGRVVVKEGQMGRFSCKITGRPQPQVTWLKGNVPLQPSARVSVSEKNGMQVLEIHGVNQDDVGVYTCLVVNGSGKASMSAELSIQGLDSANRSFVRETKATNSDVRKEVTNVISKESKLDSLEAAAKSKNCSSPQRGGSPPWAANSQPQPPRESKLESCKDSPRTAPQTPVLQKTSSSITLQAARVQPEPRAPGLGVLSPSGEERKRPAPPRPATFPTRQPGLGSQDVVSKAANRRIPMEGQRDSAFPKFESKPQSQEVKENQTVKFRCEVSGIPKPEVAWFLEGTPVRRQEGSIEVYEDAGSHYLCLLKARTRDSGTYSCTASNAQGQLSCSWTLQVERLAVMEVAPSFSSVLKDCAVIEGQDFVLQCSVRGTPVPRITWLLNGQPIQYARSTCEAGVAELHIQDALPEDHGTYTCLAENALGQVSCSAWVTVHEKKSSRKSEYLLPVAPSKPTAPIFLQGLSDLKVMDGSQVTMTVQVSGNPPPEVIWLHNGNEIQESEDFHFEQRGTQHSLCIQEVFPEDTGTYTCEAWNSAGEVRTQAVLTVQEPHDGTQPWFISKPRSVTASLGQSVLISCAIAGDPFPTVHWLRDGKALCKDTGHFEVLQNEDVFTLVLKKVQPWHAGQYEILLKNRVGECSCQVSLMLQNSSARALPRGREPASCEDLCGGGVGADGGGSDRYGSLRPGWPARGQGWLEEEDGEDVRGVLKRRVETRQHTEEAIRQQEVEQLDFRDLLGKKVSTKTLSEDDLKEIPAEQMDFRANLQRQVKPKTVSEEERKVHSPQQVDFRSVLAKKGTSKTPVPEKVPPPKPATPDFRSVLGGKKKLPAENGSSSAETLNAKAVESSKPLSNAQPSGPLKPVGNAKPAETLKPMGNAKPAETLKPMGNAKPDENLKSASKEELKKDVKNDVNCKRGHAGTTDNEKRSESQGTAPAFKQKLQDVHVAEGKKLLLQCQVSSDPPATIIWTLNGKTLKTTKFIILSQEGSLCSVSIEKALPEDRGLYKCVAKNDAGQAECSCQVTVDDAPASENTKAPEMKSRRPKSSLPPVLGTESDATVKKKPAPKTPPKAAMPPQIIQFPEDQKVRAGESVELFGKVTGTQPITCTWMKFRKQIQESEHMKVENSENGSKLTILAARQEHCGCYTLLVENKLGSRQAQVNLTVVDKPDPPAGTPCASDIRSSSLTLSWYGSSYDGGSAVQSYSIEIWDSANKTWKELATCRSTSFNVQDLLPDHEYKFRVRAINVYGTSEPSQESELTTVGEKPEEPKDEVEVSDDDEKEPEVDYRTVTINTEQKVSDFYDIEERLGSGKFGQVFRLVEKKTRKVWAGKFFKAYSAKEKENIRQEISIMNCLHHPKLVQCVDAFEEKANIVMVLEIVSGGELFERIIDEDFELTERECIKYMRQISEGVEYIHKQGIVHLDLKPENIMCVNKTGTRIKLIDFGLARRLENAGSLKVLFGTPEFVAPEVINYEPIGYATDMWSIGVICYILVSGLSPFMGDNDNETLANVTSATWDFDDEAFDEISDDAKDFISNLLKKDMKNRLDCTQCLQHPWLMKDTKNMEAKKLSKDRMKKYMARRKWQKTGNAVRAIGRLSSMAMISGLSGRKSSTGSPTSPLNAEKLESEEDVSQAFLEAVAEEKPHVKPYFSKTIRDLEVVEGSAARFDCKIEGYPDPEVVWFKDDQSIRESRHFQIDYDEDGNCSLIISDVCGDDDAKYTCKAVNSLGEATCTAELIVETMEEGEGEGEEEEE

A further assay has as its target T3, BTK (Homo sapiens, UniProt Q06187).
T3 construct: purchased Eurofins DiscoverX KINOMEscan

A further assay has as its target T4, FLT3(N841I) (Homo sapiens, UniProt P36888, N841I).
T4 construct: purchased Eurofins DiscoverX KINOMEscan
T4 sequence (P36888 27-993 N841I): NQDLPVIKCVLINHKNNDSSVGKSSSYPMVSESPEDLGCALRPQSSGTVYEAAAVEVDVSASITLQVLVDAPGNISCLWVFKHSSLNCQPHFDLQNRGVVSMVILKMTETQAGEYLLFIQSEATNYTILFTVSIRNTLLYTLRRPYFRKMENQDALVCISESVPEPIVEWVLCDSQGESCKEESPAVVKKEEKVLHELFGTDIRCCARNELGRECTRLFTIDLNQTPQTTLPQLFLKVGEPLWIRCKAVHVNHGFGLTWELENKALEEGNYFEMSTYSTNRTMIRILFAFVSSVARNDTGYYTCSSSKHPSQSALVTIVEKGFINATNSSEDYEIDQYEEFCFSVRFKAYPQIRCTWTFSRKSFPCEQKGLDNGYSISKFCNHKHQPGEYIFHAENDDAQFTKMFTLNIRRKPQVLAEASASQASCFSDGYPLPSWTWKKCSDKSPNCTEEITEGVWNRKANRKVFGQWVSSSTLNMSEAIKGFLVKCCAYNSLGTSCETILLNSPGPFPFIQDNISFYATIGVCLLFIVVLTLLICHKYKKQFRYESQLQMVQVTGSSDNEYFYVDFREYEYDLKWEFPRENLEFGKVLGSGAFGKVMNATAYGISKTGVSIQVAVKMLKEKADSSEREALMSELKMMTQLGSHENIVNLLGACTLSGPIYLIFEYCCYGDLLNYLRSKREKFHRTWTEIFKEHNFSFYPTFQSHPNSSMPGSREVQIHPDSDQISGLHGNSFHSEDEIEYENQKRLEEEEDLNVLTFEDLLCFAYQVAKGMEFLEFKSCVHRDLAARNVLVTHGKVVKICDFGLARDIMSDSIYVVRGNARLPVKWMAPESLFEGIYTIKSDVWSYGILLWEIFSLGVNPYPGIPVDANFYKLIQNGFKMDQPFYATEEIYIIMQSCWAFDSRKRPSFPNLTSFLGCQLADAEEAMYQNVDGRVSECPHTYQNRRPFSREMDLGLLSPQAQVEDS

In another assay the target is T5, AMPK-alpha2 (Homo sapiens, UniProt P54646).
T5 construct: purchased Eurofins DiscoverX KINOMEscan
T5 sequence (P54646 whole entry): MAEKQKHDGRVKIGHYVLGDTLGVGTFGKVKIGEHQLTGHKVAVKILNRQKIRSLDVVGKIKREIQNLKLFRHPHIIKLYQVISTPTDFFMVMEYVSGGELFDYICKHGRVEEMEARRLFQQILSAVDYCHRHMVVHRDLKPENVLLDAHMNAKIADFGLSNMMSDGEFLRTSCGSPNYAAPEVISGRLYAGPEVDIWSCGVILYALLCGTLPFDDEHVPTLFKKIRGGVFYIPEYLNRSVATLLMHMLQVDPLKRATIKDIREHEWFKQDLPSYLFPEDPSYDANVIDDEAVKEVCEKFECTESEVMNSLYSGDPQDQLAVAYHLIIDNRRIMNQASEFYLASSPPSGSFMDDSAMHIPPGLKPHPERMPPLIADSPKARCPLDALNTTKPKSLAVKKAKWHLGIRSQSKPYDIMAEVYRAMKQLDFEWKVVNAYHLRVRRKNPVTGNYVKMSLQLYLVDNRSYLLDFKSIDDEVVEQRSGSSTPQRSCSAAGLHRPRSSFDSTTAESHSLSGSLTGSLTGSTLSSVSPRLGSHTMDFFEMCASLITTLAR

Another assay addresses T6, ZAP70 (Homo sapiens, UniProt P43403).
T6 construct: purchased Eurofins DiscoverX KINOMEscan
T6 sequence (P43403 1-619): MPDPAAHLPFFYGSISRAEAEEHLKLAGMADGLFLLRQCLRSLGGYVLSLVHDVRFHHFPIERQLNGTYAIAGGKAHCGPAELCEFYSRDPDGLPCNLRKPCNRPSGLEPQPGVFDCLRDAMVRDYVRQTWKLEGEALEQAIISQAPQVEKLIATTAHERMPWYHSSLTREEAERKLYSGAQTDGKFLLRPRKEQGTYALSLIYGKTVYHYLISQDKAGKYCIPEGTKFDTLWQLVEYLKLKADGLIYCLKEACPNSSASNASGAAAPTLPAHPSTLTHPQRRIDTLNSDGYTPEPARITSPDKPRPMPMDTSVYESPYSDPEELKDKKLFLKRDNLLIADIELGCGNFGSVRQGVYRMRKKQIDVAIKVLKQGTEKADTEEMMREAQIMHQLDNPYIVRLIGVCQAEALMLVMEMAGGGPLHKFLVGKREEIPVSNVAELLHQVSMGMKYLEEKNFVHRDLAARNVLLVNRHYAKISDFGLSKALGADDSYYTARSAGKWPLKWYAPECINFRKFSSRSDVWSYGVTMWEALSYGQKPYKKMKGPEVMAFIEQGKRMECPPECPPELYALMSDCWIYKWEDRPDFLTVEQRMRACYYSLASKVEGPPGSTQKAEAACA

T3 sequence (Q06187 whole entry): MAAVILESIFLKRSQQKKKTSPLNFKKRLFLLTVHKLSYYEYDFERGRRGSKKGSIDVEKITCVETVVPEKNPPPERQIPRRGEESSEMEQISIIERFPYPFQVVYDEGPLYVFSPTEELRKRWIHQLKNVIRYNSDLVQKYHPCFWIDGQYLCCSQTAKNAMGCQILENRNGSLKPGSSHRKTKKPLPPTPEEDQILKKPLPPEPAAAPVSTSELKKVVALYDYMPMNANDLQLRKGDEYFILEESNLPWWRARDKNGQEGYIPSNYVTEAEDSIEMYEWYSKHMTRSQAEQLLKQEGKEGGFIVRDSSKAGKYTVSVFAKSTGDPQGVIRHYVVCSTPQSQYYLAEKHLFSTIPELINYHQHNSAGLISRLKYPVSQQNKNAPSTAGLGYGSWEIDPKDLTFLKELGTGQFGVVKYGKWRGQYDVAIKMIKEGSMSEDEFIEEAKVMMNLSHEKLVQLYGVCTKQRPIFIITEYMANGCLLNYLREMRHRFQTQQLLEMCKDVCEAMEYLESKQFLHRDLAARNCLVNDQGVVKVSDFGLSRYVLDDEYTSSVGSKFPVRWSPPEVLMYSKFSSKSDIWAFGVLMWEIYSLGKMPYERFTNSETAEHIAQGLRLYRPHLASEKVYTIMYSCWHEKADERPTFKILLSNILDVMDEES

For `Clc1cc(NCC2CC2)c2ncc(-c3ccc4[nH]ncc4c3)n2n1` [compound 2, 6-Chloro-N-(cyclopropylmethyl)-3-(1H-indazol-5-yl)imidazo[1,2-b]pyridazin-8-amine], the remaining binding at 1 µM on ASK2 was 83%; on MYLK, 79%; on BTK it was 98%; on FLT3(N841I), 7.5%; at AMPK-alpha2, 94%; at ZAP70, 84%.

For `O=C(CN1CCOCC1)N[C@H]1CC[C@H](Nc2cc(Cl)nn3c(-c4ccc5[nH]ncc5c4)cnc23)CC1` [compound 26], the remaining binding at 1 µM at ASK2 was 96%; at MYLK it was 42%; at BTK it was 100%; on FLT3(N841I), 0%; at AMPK-alpha2, 92%; at ZAP70 it was 100%.

Regarding `CN1CCC(CNc2cc(Cl)nn3c(-c4cc5nc(Nc6ccccc6)[nH]c5cc4F)cnc23)CC1` [compound 31, 6-Chloro-3-(6-fluoro-2-(phenylamino)-1H-benzo[d]imidazol-5-yl)-N-((1-methylpiperidin-4-yl)methyl)imidazo[1,2-b]pyridazin-8-amine], the remaining binding at 1 µM at ASK2 is 100%; on MYLK it was 81%; on BTK, 70%; at FLT3(N841I) it was 96%; at AMPK-alpha2, 99%; on ZAP70, 83%.
